Laboratory results reported in PubChem BioAssay AID1919003 (Molecular Pharmacology Branch, DTP, NCI, 2023).
Several values for one entry are separate records, joined by “and”; a condition that tells them apart may be missing. Equal values may be shown once.

System: 786-0 complex spheroids with HUVEC/MSC, growth % test/control
Experiment: Anticancer human tumor 786-0 cell line growth inhibition [AhR];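 note: compound exposure lasted seven days before the read-out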
Settings: for viability, T/C: stronger effect = lower value
Excerpt: Multicellular complex tumor spheroid response to aryl hydrocarbon receptor antagonists in combination with a variety of drugs and investigational agents in selected tumor cell lines
The current study was undertaken to assess response to aryl hydrocarbon receptor antagonists in combination with standard-of-care drugs and investigational agents in solid tumor complex spheroid models. Complex spheroids include a stromal component modeled by human endothelial cells (HUVEC) and fibroblasts modeled by human mesenchymal stem cells (MSCs). The concentration ranges selected for each drug and investigational agent were based upon clinically achievable concentrations if the clinical Cmax of the agent was known.
Compounds. The drugs and investigational agents: BAY 2416964 (NSC825713), GNF351 (NSC835774), CH-223191 (NSC835775), CPI-455 (NSC825282), aza-TdCyd (NSC777586), decitabine (NSC127716), belinostat (NSC758774), entinostat (NSC756642), pevonedistat (NSC761192), tazemetostat (NSC777109), talazoparib (NSC765396), olaparib (NSC753686), selinexor (NSC780203), nedisertib (M3814, NSC802822), bortezomib (NSC756655), venetoclax (NSC766270), doxorubicin (NSC123127), elimusertib (BAY189344, NSC800525), ceralasertib (AZD6738, NSC777638), TAK-243 (NSC785004), alisertib (NSC759677), etoposide (NSC141540), topotecan (NSC609699), eribulin (NSC707389), gemcitabine (NSC613327), carboplatin (NSC241240), cisplatin (NSC119875), and SN-38 (NSC673596) were obtained from the National Cancer Institute (NCI) Developmental Therapeutics Program Chemical Repository (32). The FDA-approved anticancer drug set is available from the Developmental Therapeutics Program at https://dtp.cancer.gov/organization/dscb/obtaining/available plates.htm. […] The stock solutions were prepared in dimethyl sulfoxide (DMSO, Sigma-Aldrich, St. Louis, MO, cat. D2650), except for the platinum compounds which were prepared in saline (Quality Biological, Gaithersburg, MD, cat. 114-055-101), at 800-fold the tested concentration and stored at -70 degrees C prior to their use. All drugs and investigational agents were tested over a range starting from a high concentration at or near the clinical Cmax and decreasing in half-log increments. If the clinical Cmax for an agent had not been determined, the highest concentration tested was 10 microM (Table 1).
Cell Culture. All cells were maintained in an incubator at 37 degrees C and 5% CO2 with 95% humidity. The PDC lines were cultured according to standard operating procedures established by the NCI PDMR (https://pdmr.cancer.gov). Briefly, all PDCs were thawed and cultured in Matrigel-coated flasks prepared with a working solution of 1X Ham's F-12 nutrient mix, without supplementation (Invitrogen, Waltham, MA, cat. 11765054), 100 U/mL penicillin-streptomycin (Invitrogen, cat. 15140122), and 2.5% Matrigel (Corning Inc., Corning, NY, cat. 354248) for the first three passages. All PDCs were cultured in complete DMEM/F-12 media containing advanced DMEM/F-12 (Invitrogen, cat. 12634028), 4.9% defined fetal bovine serum, heat inactivated (HyClone Laboratories Inc., Logan, UT, cat. SH30070.03HI), 389 ng/mL hydrocortisone (Sigma-Aldrich, cat. H4001), 9.7 ng/mL human EGF recombinant protein (Invitrogen, cat. PHG0313), 23.4 microg/mL adenine (Sigma-Aldrich, cat. A2786), 97.3 U/mL penicillin-streptomycin (Invitrogen, cat. 15140122), 1.9 mM L-glutamine (Invitrogen, cat. 25030081), and 9.7 microM Y-27632 dihydrochloride (Tocris Bioscience, Bristol, United Kingdom, cat. 1254). The PDCs were cultured in complete DMEM/F12 media without 10 microM Y-27632 dihydrochloride for at least two passages prior to the screen. The established cell lines NCI-H1341 and […] were cultured in DMEM/F-12, HEPES (Invitrogen, cat. 11330032), 5% defined fetal bovine serum (HyClone Laboratories Inc., cat. SH30070.03), ITS premix universal culture supplement [insulin (5 microg/mL), transferrin (5 microg/mL), and selenious acid (5 ng/mL)] […]

| Structure (SMILES) | viability, T/C (compound 0.0316 µM) | viability, T/C (compound 0.1 µM) | viability, T/C (compound 0.316 µM) | viability, T/C (compound 1 µM) | viability, T/C (compound 3.16 µM) | viability, T/C (compound 10 µM) | IC50 (curve of compound) | other results |
| --- | --- | --- | --- | --- | --- | --- | --- | --- |
| COc1cccc2c1C(=O)c1c(O)c3c(c(O)c1C2=O)CC(O)(C(=O)CO)CC3OC1CC(N)C(O)C(C)O1 (configuration not stated) | 58.8% and 70% and 62% | 51.9% and 65.6% and 44.9% | 23.9% and 30.9% and 18.1% | 7% and 10.7% and 3.15% | 0.81% and 3.57% and 0.53% | 0.36% and 3.07% and 0.69% | 104 nM and 166 nM and 71.8 nM |  |
| Cc1ccccc1N=Nc1ccc(NC(=O)c2ccnn2C)c(C)c1 |  | 99.5% [middle of 20 runs] | 99.1% [middle of 20 runs] | 97.1% [middle of 20 runs] |  |  |  | IC50 (compound alone, run of 08/22/2022): > 10000 nM |
| Cc1cncc(-c2nc(NCCc3c[nH]c4ccccc34)c3ncn(C(C)C)c3n2)c1 |  | 114% [middle of 20 runs] |  |  |  | 11.6% [middle of 20 runs] |  | IC50 (compound alone, run of 08/16/2022): 5.18 µM [middle of 23 runs] |
| Cn1ncnc1C1c2n[nH]c(=O)c3cc(F)cc(c23)NC1c1ccc(F)cc1 (configuration not stated) | 99.5% and 112% and 97.7% | 106% and 108% and 102% |  |  |  |  | > 100 nM | viability, T/C (compound 0.000316 µM): 108% (2×) and 92.5%; viability, T/C (compound 0.001 µM): 104% and 108% and 105%; viability, T/C (compound 0.00316 µM): 110% and 104% and 100%; viability, T/C (compound 0.01 µM): 109% and 104% and 101% |
| NS(=O)(=O)OCC1CC(n2ccc3c(NC4CCc5ccccc54)ncnc32)CC1O (configuration not stated) | 86.6% and 84.8% and 82.7% | 82.9% and 78.3% and 70.6% | 65.9% and 65% and 60.3% | 28.2% and 41.9% and 20.8% | 5.17% and 8.09% and 3.13% | 3.31% and 4.15% and 1.12% | 512 nM and 630 nM and 411 nM |  |
| Nc1ccccc1NC(=O)c1ccc(CNC(=O)OCc2cccnc2)cc1 | 105% and 107% and 108% | 102% and 106% and 113% | 106% and 102% and 111% | 113% and 108% and 114% | 73.9% and 96.8% and 86.7% | 25.2% and 36.6% and 21.4% | 5560 nM and 7780 nM and 6040 nM |  |
| Nc1ccn(C2OC(CO)C(O)C2(F)F)c(=O)n1 (configuration not stated) | 5.98% and 8.17% and 4.44% | 6.03% and 7.13% and 4.49% | 4.27% and 6.35% and 5.28% | 4.72% and 8.77% and 4.12% | 4.82% and 7.86% and 5.09% | 5.31% and 7.65% and 6.29% | < 31.6 nM |  |
| Nc1ncn(C2CC(O)C(CO)O2)c(=O)n1 (configuration not stated) | 98.7% and 88.8% and 106% | 96.5% and 86% and 94.8% | 81.5% and 69.4% and 93.1% | 85.2% and 54.8% and 84.6% |  |  | > 1000 nM | viability, T/C (compound 0.00316 µM): 99.4% and 101% and 104%; viability, T/C (compound 0.01 µM): 102% and 81.5% and 104% |
| Nc1ncn(C2CC(O)C(CO)S2)c(=O)n1 (configuration not stated) |  |  |  |  |  |  | > 300 nM | viability, T/C (compound 0.000949 µM): 109% and 99.9% and 112%; viability, T/C (compound 0.003 µM): 103% and 94.9% and 105%; viability, T/C (compound 0.00949 µM): 99.4% and 94.5% and 98.6%; viability, T/C (compound 0.03 µM): 102% and 107% and 100%; viability, T/C (compound 0.0949 µM): 73.2% and 96.8% and 89%; viability, T/C (compound 0.3 µM): 63.7% and 75.5% and 63.9% |
| O=C(C=Cc1cccc(S(=O)(=O)Nc2ccccc2)c1)NO | 104% and 102% and 97.4% | 101% and 99.7% and 102% | 101% and 103% and 102% | 101% and 102% and 112% | 75.2% and 93.4% and 85.6% | 16.8% and 22.8% and 12.4% | 5200 nM and 6410 nM and 5530 nM |  |
| O=C(C=Cn1cnc(-c2cc(C(F)(F)F)cc(C(F)(F)F)c2)n1)NNc1cnccn1 |  |  |  |  |  |  | 700 nM and 745 nM and 356 nM | viability, T/C (compound 0.00949 µM): 106% (2×) and 101%; viability, T/C (compound 0.03 µM): 110% and 108% and 112%; viability, T/C (compound 0.0949 µM): 109% and 107% and 105%; viability, T/C (compound 0.3 µM): 66.8% and 69.5% and 52.4%; viability, T/C (compound 0.949 µM): 47.5% and 48.1% and 38.7%; viability, T/C (compound 3 µM): 20.5% and 24.1% and 16.9% |
| O=C(c1cc(Cc2n[nH]c(=O)c3ccccc23)ccc1F)N1CCN(C(=O)C2CC2)CC1 | 111% and 97.5% and 96.3% | 104% and 99.7% and 103% | 112% and 103% and 102% | 108% and 109% and 104% | 109% and 107% and 104% | 107% and 98% and 91.6% | > 10000 nM |  |
